Reference: patent publication US11642320B2, “Nanoparticulate prodrugs” (priority 2016, dated 2023)

Columns and labels:
[1] = system: TNFα; experiment: Cytokine release from LPS-treated macrophages: TNFα; type: cell-based, mouse; conditions: RAW 264.7, LPS 0.1 μg/mL, 24 hours; 100 μg/ml DXP or same equivalent concentration (82 μg/ml dexamethasone phosphate)
Protocol: (§1) For the cytokine release experiment, the RAW 264.7 cells were seeded in 24-well plates at a cellular density of 4×10^4 cells/well in culture medium and they were left in the incubator for 48 hours to reach 80% confluency. Then, the medium was replaced by fresh medium alone or fresh medium with LPS at 0.1 μg/mL, and the plates were incubated another 3 hours. Afterwards, the “standard” nanoparticles produced by emulsification-solvent evaporation at three concentrations: 1, 10 and 100 μg/mL of DXP and free dexamethasone phosphate at 82 μg/ml, which correspond to 100 μg/ml DXP considering molecular weight ratio, were added to some wells. Culture medium alone was used as negative control and LPS 0.1 μg/mL as positive control.
(§2) After 24 hours of incubation with the treatments, the supernatants were collected and frozen at −20° C. until the analysis was performed. The cells were detached and counted.
(§3) The mouse inflammatory cytokines TNFα, MCP-1, IL-10 and IL-6 were quantified using a Cytometric Beads Array (CBA) detection kit (BD Biosciences, USA). This study was performed in triplicate.

[2] = system: pro-inflammatory cytokine release, raw264.7 cells; experiment: Control cytokine release assay without LPS treatment; type: cell-based, mouse; conditions: raw264.7 cells without any LPS treatment
Protocol: as §3
This confirms that the developed nanoparticles are suitable for anti-inflammatory treatment as expected.

[3] = system: IL-6; experiment: Cytokine release from LPS-treated macrophages: IL-6; type: cell-based, mouse; conditions: RAW 264.7, LPS 0.1 μg/mL, 24 hours
Protocol: as §1, §2, §3

[4] = Pharmacokinetics in plasma after intravenous injection; parameters: species or system mice; conditions: male, DBA/lOlaHsd, mouse, in vivo, 12 mg/kg
Protocol: Nanoparticles were prepared by emulsion-evaporation as described above and were diluted in PBS to obtain a final concentration of 2.5 mg/ml DXP, which corresponds to 1.55 mg/ml dexamethasone base. […] DXM. DBA/lOlaHsd male mice aged of 9 weeks (Envigo) were divided into two groups. One received the nanoparticle suspension and the other received the control, administration was carried out by intravenous injection in the tail vein at 12 mg/kg eq. DXM. For each group, 11 pharmacokinetic time points were performed with 7 mice per point, from 10 min to 48 hours. Blood sampling was achieved by terminal cardiac puncture using a 25G needle while mice were previously anesthetized with a lethal dose of pentobarbital. Immediately after, blood was centrifuged to recover plasma which was stored at −80° C. For every time point, 5 mice out of 7 underwent organs sampling after cardiac puncture. Liver, spleen, kidneys and lungs were removed and stored at −80° C.
To achieve quantification of DXM and DXP in plasma, an extraction process was developed. 100 μl of plasma samples were introduced into centrifugation tubes and 100 μl of the internal standart at 4 μg/ml in acetonitrile was added and vortexed during 30 seconds. 3 ml of a mixture chloroform/methanol: 9/1 (v/v) was added and tubes were vortexed vigorously 3 minutes. Centrifugation were performed at 3500 rpm, 30 min. Organic phase was recovered and evaporated using an evaporator under gas flow. Dried molecules were dissolved in 200 μl acetonitrile and this sample was analyzed by HPLC-UV. Calibration curves of DXP and DXM were linear, respectively in the range 0.5-100 μg/ml (R^2=0.9997, y=0.2199x−0.0165) and 0.1-100 μg/ml (R^2=0.9974, y=1.056x+0.1445). Regarding short time points (10 min, 20 min, 40 min), DXP and DXM concentrations were above the linearity range of the calibration curve. A second calibration curve for each molecule was set up, beginning with 50 μl plasma completed to 100 μl with milliQ water. Following stages were the same than previously described. Calibration curves “50 μl plasma” of DXP and DXM were linear, respectively in the range 50-800 μg/ml (R^2=0.9808, y=0.2229x−3.2128) and 20-400 μg/ml (R^2=0.9986, y=0.7178x−0.059). Internal standard was testosterone decanoate for DXP and dexamethasone acetate for DXM quantification.

C[C@@H]1C[C@H]2[C@@H]3CCC4=CC(=O)C=C[C@]4(C)[C@@]3(F)[C@@H](O)C[C@]2(C)[C@@]1(O)C(=O)COP(=O)(O)O [DSP, dexamethasone sodium phosphate]
TNFα release [1]: no effect detected | induction of pro-inflammatory cytokine release [2]: neither DXP nanoparticles nor free drug induce pro-inflammatory cytokine release | IL-6 release [3]: No significant reduction | AUC0→t [4]: 18755 µg·min/mL | C0 [4]: 22400 ng/mL | Clearance [4]: 0.0046 mL/min | Cmax [4]: 22100 ng/mL | MRT [4]: 45 h | Tmax [4]: 0.167 h | Vd [4]: 12.50 mL | plateau of DXM in plasma [4]: around 10 % of the injected dose | t1/2 [4]: 28.8 h
